Test results reported in US8158170B2 (SNU R&DB Foundation, priority 2006, dated 2012).

What was measured:
[1] = tested on: inducible nitric oxide synthase (iNOS); assay: Expression of iNOS in liver tissue by Western blotting; assay type: in vivo, rats; settings: expression strongly induced by chronic alcohol intake; oral daily for the last week, alone or concurrently; FIG. 7
Excerpt: iNOS is an enzyme strongly inducing inflammation in liver tissue. The induction of the expression of iNOS is considered as a primary mechanism of alcohol-induced liver damage (Mckim, et al., Gastroenterology 125:1834-1844, 2003; and Venkatraman A, et al., Hepatology 40: 565-573, 2004).

[2] = tested on: fatty acid synthase (FAS); assay: Expression of FAS in liver tissue by Western blotting; assay type: in vivo, rats; settings: expression decreased by chronic alcohol intake; oral daily for the last week, alone at high dose or concurrently; FIG. 5
Excerpt: The decreased expression of FAS was not restored by the administration of metadoxine or garlic oil alone at high dose.

[3] = tested on: AMP-activated protein kinase (AMPK); assay: Activity (phospho level) of AMPK in liver tissue by Western blotting; assay type: in vivo, rats; settings: activity decreased due to alcohol intake; oral daily for the last week, alone or concurrently; FIG. 8
Description: (§1) Sodium dodecyl sulfate-polyacrylamide gel electrophoresis (SDS-PAGE) was carried out using Mighty Small II SE 250 apparatus according to the Laemmli UK method (1970). Lysis fraction of liver tissue was diluted in a sample dilution buffer [63 mM Tris (pH 6.8), 10% glycerol, 2% SDS, 0.0013% bromophenol blue, 5% β-mercaptoethanol] and electrophoresis was performed in an electrode buffer (15 g of Tris, 72 g of glycine and 5 g of SDS in 1 L) using 7.5% and 9% gel. After electrophoresis, proteins were transferred to nitrocellulose paper at 190 mAmps for a duration of 1 hour, using a transfer buffer [25 mM Tris, 192 mM glycine, 20% v/v methanol (pH 8.3)]. Anti-fatty acid synthase, anti-iNOS, anti-phospho AMPK-α anti-phospho ACC, anti-Fox01, anti-Fox03 and anti-CYP2E1 were reacted as primary antibodies. […] Change in the expression of proteins was analyzed by determining the color intensity of blots through densitometry. […]
(§2) The levels of AMPK (AMP-activated protein kinase), a critical enzyme involved in the oxidation of fatty acid, and phosphate form of ACC (acetyl-CoA carboxylase), a substrate of AMPK, in the liver tissue taken in Example 1 were analyzed by Western blotting.

[4] = tested on: acetyl-CoA carboxylase (ACC); settings: activity decreased due to alcohol intake; oral daily for the last week, alone or concurrently; FIG. 9
Description: as §1, §2

## Cc1ncc(CO)c(CO)c1O.O=C1CCC(C(=O)O)N1 [metadoxine, pyridoxol 1-2-pyrrolidone-5-carboxylate]
[1]
  expression of iNOS in liver tissue: decreased
[2]
  expression of fatty acid synthase (FAS) in liver tissue: not restored
[3]
  activity of AMPK in liver tissue: no change
[4]
  activity of ACC in liver tissue: no change
